Test results as given in US12485104B2, “Amino acid derivatives containing a disulfanyl group as an inhibitor of NEP and APN for the prevention and treatment of trigeminal nerve pain” (KOS THERAPEUTICS, INC., priority 2018, dated 2025).

How the values were obtained:
[1] = test system: rats, migraine model induced by single injection of isosorbide dinitrate (ISDN); test: Mechanical cephalic allodynia induced by single ISDN (acute migraine), von Frey test, oral treatment; format: in vivo; conditions: 50 mg/kg orally (FIG. 3)
Method: The effects of systemic administration of compound 1 on mechanical cephalic allodynia were tested in rats in a migraine model induced by single systemic injection of an NO donor, isosorbide dinitrate (ISDN). Indeed, the powerful vasodilating action of “NO donors” explains their particular propensity to trigger headache in healthy subjects and migraine attacks in migraine patients (Hansen & Olesen, Cephalalgia (2017), 37: 11-19).
The experiments were conducted on male Sprague-Dawley CD rats (200-250 g, Charles River Laboratories). A minimum delay of 7 days was respected before any experimentation.
(§1) The animals were first subjected to habituation sessions designed to reproduce the animals environmental conditions and handling by the experimenter during the final test.
(§2) The mechanical sensitivity of the periorbital region was measured by the von Frey test, which consists of applying a range of von Frey filaments in this region, calibrated to exert a constant force (expressed in grams) to determine the force (threshold) that leads to a head withdrawal reaction. […] The rats then received an intraperitoneal injection of ISDN (10 mg/kg) and cutaneous sensitivity was assessed by means of the von Frey test. […] On the day of the experiment, the forces exerted by the von Frey filaments that led to head withdrawal were measured in each rat under controlled conditions every 30 minutes for 4 hours. […]

[2] = test system: SJL mice, EAE model (hyperalgesia); test: Tail immersion test in multiple sclerosis model (experimental autoimmune encephalomyelitis, EAE); format: in vivo; conditions: for Nociceptive threshold (tail withdrawal latency time): 20 min after administration, 48° C. bath
Excerpt: The multiple sclerosis model can be induced in SJL mice, female albino white mice, by the administration of an emulsion made up of a myeline fragment and complete Freund® adjuvant (Aicher et al., Pain (2004), 110: 560-570). Central nervous system inflammation appears at the end of around ten days=experimental autoimmune encephalomyelitis, or EAE.
Female SJL mice, purchased from Charles River Laboratories, arrive at the age of 5 weeks and are immunized at the age of 6 weeks. Each mouse receives, under mask anesthesia (2% isoflurane), an emulsion of a volume of 200 μL in the left flank, containing 150 μg of PLP139-151 (Proteolipid Protein Myelin, fragment 139-151) in 100 μL of sterile 0.9% NaCl as well as 100 μL of incomplete Freund® adjuvant (Sigma) completed by inactivated Mycobacterium tuberculosis (Difco, USA) at 4 mg/mL=complete adjuvant.
The symptoms of the disease are reported between D10 and D15, which is reflected by an acute phase, during which scores are high and the animals present a loss of pain sensitivity. This phase precedes a chronic phase which starts around D18 and is characterized by stabilization of the animals general condition and the onset of a significant lowering in the pain perception threshold (hyperalgic state) (Aicher et al., Pain (2004), 110: 560-570).
Nociceptive thresholds were determined from D12 by the tail immersion test.
Compound 1 is administered IP (intraperitoneally) at 50 mg/kg and 100 mg/kg in a EtOH/Tween 80/Water carrier (10/10/80) (100 μL per 10 g of mice). The measurement of time of tail withdrawal from a 48° C. bath is done at 20 min after injection (cut-off=10 sec).

healthy volunteers = test: Adverse effects observed during phase 1b clinical study; conditions: N = 6
Method: The doses indicated in the following table were administered 4 times a day for 5 days, the daily dose varying from 800 to 4000 mg, the total quantity over five days being comprised between 4000 and 20,000 mg.

[3] = test system: rats, chronic migraine model induced by repeated injection of isosorbide dinitrate (ISDN); test: Prevention of migraine attacks by oral administration, chronic ISDN model, von Frey test; format: in vivo
Method: The effects of oral administration of compound 1 on mechanical cephalic allodynia were tested in rats in a chronic migraine model induced by repeated systemic injection of an NO donor, isosorbide dinitrate (ISDN). Indeed, the powerful vasodilating action of “NO donors” explains their particular propensity to trigger headache in healthy subjects and migraine attacks in migraine patients (Hansen & Olesen, Cephalalgia (2017), 37: 11-19).
The experiments were conducted on male rats (10 rats per group of the Sprague-Dawley CD strain (200-250 g, Charles River Laboratories), randomly assigned into each group before experimentation. A minimum delay of 7 days was respected before any experimentation. The experiments were conducted with the experimenter blinded.
as §1
The mechanical sensitivity of the periorbital region was measured by the von Frey test, which consists of applying a range of von Frey filaments in this region, calibrated to exert a constant force (expressed in grams) to determine the force (threshold) that leads to a head withdrawal reaction. The rats were habituated to these tests for 5 days preceding the experiment for one hour, so that repeated measurements give reproducible results. […] The rats then received successive intraperitoneal injections of ISDN (10 mg/kg) and cutaneous sensitivity was assessed by means of the von Frey test. […]
Cutaneous mechanical sensitivity was measured before and on the test day (FIG. 4, single administration of compound 1 or FIG. 6, repeated administration of compound 1) or before and on the test day (Days 1, 2, 3, 4 and 5) (FIG. 5, repeated administration of compound 1) before injection and at 30 min intervals for 4 h in the different groups of rats receiving intraperitoneal ISDN (10 mg/kg, volume of 10 mL/kg). […]

[4] = test system: rats, migraine model induced by repeated injection of isosorbide dinitrate (ISDN); test: Persistent cephalic allodynia induced by recurrent ISDN (chronic migraine), von Frey test, IV treatment; format: in vivo; conditions: 20 mg/kg intravenously (FIG. 2)
Method: The effects of systemic administration of compound 1 on mechanical cephalic allodynia were tested in rats in a migraine model induced by repeated systemic injection of an NO donor, isosorbide dinitrate (ISDN). Indeed, the powerful vasodilating action of “NO donors” explains their particular propensity to trigger headache in healthy subjects and migraine attacks in migraine patients (Hansen & Olesen, Cephalalgia (2017), 37: 11-19).
The experiments were conducted on male Sprague-Dawley CD rats (200-250 g, Charles River Laboratories). A minimum delay of 7 days was respected before any experimentation. […]
as §2, with “received successive” for “received an”, “intraperitoneal injections” for “intraperitoneal injection”

[5] = 200 mg 4 times a day for 5 days
[6] = 400 mg 4 times a day for 5 days
[7] = 600 mg 4 times a day for 5 days
[8] = 800 mg 4 times a day for 5 days
[9] = 1000 mg 4 times a day for 5 days

In the case of CCOC(=O)OC(C)OC(=O)CNC(=O)[C@@H](CSSC[C@@H](N)CCSC)Cc1ccccc1.O=C(O)/C=C/C(=O)O (stereo partly drawn) [Compound 1, (5S,10S)-10-benzyl-16-methyl-11,14,18-trioxo-15,17,19-trioxa-2,7,8-trithia-12-azahenicosan-5-aminium fumarate], the “Effect on cephalic cutaneous sensitivity (von Frey)” value [1] is reported as “considerably reduces cephalic cutaneous sensitivity”, the “Nociceptive threshold (tail withdrawal latency time)” value (“Nociceptive threshold” below) ([2]; 50 mg/kg IP, D21) is reported as 5.12 (4) seconds and the “Nociceptive threshold” value ([2]; 50 mg/kg IP, D28) is reported as 4.14 (5) seconds. For the same molecule, the “Nociceptive threshold” value ([2]; 100 mg/kg IP, D28) was 5.98 (5) seconds, the “Nociceptive threshold” value ([2]; 100 mg/kg IP, D35) was 5.46 (5) seconds and the Effect on hyperalgesia ([2]; 50 and 100 mg/kg IP (FIG. 1)) was “permits reducing hyperalgesia”. For the same molecule, the “Subjects with Death” value (healthy volunteers; [5]) was 0, the “Subjects with LAE (limiting adverse event)” value (healthy volunteers; [5]) was 0 and the “Subjects with SAE (serious adverse event)” value (shortened to “Subjects with SAE”) (healthy volunteers; [5]) was 0. The “Subjects with TEAEs, (%)” value (healthy volunteers; [5]) was 16.7%, the “TEAEs, E = number of adverse reactions” value (healthy volunteers; [5]) was 3 and the “Subjects with Death” value (healthy volunteers; [6]) was 0. The “Subjects with LAE (limiting adverse event)” value (healthy volunteers; [6]) was 0, the “Subjects with SAE” value (healthy volunteers; [6]) was 0 and the “Subjects with TEAEs, (%)” value (healthy volunteers; [6]) was 83.3%. For the same molecule, the “TEAEs, E = number of adverse reactions” value (healthy volunteers; [6]) was 12, the “Subjects with Death” value (healthy volunteers; [7]) was 0 and the “Subjects with LAE (limiting adverse event)” value (healthy volunteers; [7]) was 0. The “Subjects with SAE” value (healthy volunteers; [7]) was 0, the “Subjects with TEAEs, (%)” value (healthy volunteers; [7]) was 66.7% and the “TEAEs, E = number of adverse reactions” value (healthy volunteers; [7]) was 7. For the same molecule, the “Subjects with Death” value (healthy volunteers; [8]) was 0, the “Subjects with LAE (limiting adverse event)” value (healthy volunteers; [8]) was 0 and the “Subjects with SAE” value (healthy volunteers; [8]) was 0. The “Subjects with TEAEs, (%)” value (healthy volunteers; [8]) was 100.0%, the “TEAEs, E = number of adverse reactions” value (healthy volunteers; [8]) was 10 and the “Subjects with Death” value (healthy volunteers; [9]) was 0. For the same molecule, the “Subjects with LAE (limiting adverse event)” value (healthy volunteers; [9]) was 0, the “Subjects with SAE” value (healthy volunteers; [9]) was 0 and the “Subjects with TEAEs, (%)” value (healthy volunteers; [9]) was 66.7%. The “TEAEs, E = number of adverse reactions” value (healthy volunteers; [9]) was 15, the “Effect on cutaneous cephalic sensitivity (von Frey)” value ([3]; 50 mg/kg orally once daily for 5 days, as a function of time after ISDN, versus carrier (FIG. 6)) was “significantly reduces cutaneous cephalic sensitivity” and the “Effect on cutaneous cephalic sensitivity (von Frey)” value ([3]; 50 mg/kg orally once on the experiment day (FIG. 4)) was “had no effect on cutaneous cephalic sensitivity”. The “Effect on cutaneous cephalic sensitivity (von Frey)” value ([3]; 50 mg/kg orally repeatedly over 5 days, before administration of ISDN, versus carrier (FIG. 5)) was “significantly reduces cutaneous cephalic sensitivity” and the “Effect on cephalic cutaneous sensitivity (von Frey)” value [4] was “considerably reduces cephalic cutaneous sensitivity”.
